What was measured:
[1] = test system: transplantation tumor of human gastric cancer cell MGC-803 carcinoma in situ; assay: Bioluminescence detection (IVIS small animal live imaging) and necropsy of orthotopic MGC-803 tumour in nude mice; assay type: in vivo, BALB/c nude mice
From the text: (§1) In one embodiment of the present invention, according to the “Technical Guidelines for Non-Clinical Studies of Cytotoxic Antitumor Drugs” and “Guidelines for Pharmacodynamics of Antitumor Drugs”, IVIS Kinetics (a small animal live imaging system) was used to dynamically analyze the therapeutic effect of rhCNB for injection on the BALB/c nude mice bearing the human gastric cancer cell MGC-803 carcinoma in situ. Firstly, a BALB/c nude mouse model bearing subcutaneous transplantation tumor of human gastric cancer cell MGC-803 was established, and then a BALB/c nude mouse model bearing transplantation tumor in situ of human gastric cancer cell MGC-803 was established. […] Each experimental group is administered once daily for 15 consecutive days, except that the positive control high-dose administration group of cisplatin for injection is administered for 5 days. […] Animals were examined once using Caliper IVIS Kinetics (small animal live imaging system) before the first administration (on the administration day), every other 3 days after the first administration and on the 7th day after the last administration, respectively, and body weight was measured before each examination. At the end of the last examination, animals were sacrificed and roughly necropsied, and organs inoculated with tumor (including tumor tissues) were removed for pathological examination and immunohistochemical assay of apoptosis.
Human gastric cancer cell MGC-803 was routinely cultured in vitro, digested, centrifuged, and then prepared into a cell suspension with a concentration of approximately 1×10^7 cells/mL. The cells were inoculated subcutaneously into the right armpit of mice at an amount of 0.2 mL/mouse.
Well-grown subcutaneously transplanted tumors were removed and cut into tumor tissue blocks with a size of approximately 2×2×1 mm for use. Animals to be inoculated were feed 12 hours before surgical operation and subjected to gas anesthesia with isoflurane. The anaesthetized animals were placed in supine position. The skin 2˜5 mm below the xiphoid process was cut horizontally layer-by-layer on the left side to give an opening of about 1 cm. Stomach was pull out gently using a pincette and exposed. The tumor tissue block was placed above the side near the pylorus of greater curvature of stomach of the nude mice with surgical suture #1 by “purse-string suture”, so that the tumor tissue block was wrapped therein. The skin was sutured layer by layer and disinfected by Entoiodine, and then the animals were returned back to the cage for normal feeding. 7 days after surgery, the animals were examined using the small animal live imaging system, grouped, and administrated.
The route for administration was by tail vein injection.
Animals were detected once using Caliper IVIS Kinetics small animal live imaging system at the following time point: before the first administration (on the administration day), every other 3 days after the first administration, and on the 7th day after the last administration, respectively. The body weight was measured before each detection. A substrate solution (with a concentration of 15 mg/mL) was injected intraperitoneally according to 0.1 mL/10 g body weight and a bioluminescence detection was performed 10˜15 min after injection.
The data obtained from the experiments were statistically analyzed using SPSS analysis software, and the significance of difference between the administration groups and the vehicle control group, and among each administration group was compared.

[2] = Survival of tumour-bearing animals during the experiment; assay type: in vivo, BALB/c nude mice
From the text: as §1
The high-, medium-, low-dose groups and progressively increasing-dose group of the test sample were administered once daily for 15 consecutive days;

[3] = X, 2 mg/kg once daily 15 d, d12
[4] = X, 2 mg/kg once daily 15 d, d15
[5] = SD, low-dose 1 mg/kg once daily 15 d, d3
[6] = SD, low-dose 1 mg/kg once daily 15 d, d6
[7] = SD, low-dose 1 mg/kg once daily 15 d, d9
[8] = SD, low-dose 1 mg/kg once daily 15 d, d12
[9] = SD, low-dose 1 mg/kg once daily 15 d, d15
[10] = SG, high-dose 5 mg/kg once daily 5 d, d3
[11] = SG, high-dose 5 mg/kg once daily 5 d, d6

SMILES: CC[C@@]1(O)C(=O)OCc2c1cc1n(c2=O)Cc2cc3cc(O)ccc3nc2-1 [hydroxycamptothecin for injection, hydroxycamptothecin]
- Number of animals in which tumor is not detectable and not observed ([1]; X, 2 mg/kg once daily 15 d, d0): 0
- Number of animals in which tumor is not detectable and not observed ([1]; X, 2 mg/kg once daily 15 d, d3): 0
- Number of animals in which tumor is not detectable and not observed ([1]; X, 2 mg/kg once daily 15 d, d6): 0
- Number of animals in which tumor is not detectable and not observed ([1]; X, 2 mg/kg once daily 15 d, d9): 0
- Number of animals in which tumor is not detectable and not observed [1, 3]: 0
- Number of animals in which tumor is not detectable and not observed [1, 4]: 0
- Number of animals in which tumor is not detectable and not observed ([1]; X, 2 mg/kg once daily 15 d, recovery period d7): 0
- number of surviving animals ([2]; X, 2 mg/kg once daily 15 d, d0 before administration): (10)
- number of surviving animals ([2]; X, 2 mg/kg once daily 15 d, d3): (10)
- number of surviving animals ([2]; X, 2 mg/kg once daily 15 d, d6): (9)
- number of surviving animals ([2]; X, 2 mg/kg once daily 15 d, d9): (9)
- number of surviving animals [2, 3]: (9)
- number of surviving animals [2, 4]: (9)
- number of surviving animals ([2]; X, 2 mg/kg once daily 15 d, d21 (7th day after last administration)): (7)

SMILES: N.N.[Cl][Pt][Cl] [cisplatin for injection, cisplatin]
- Number of animals in which tumor is not detectable and not observed ([1]; SD, low-dose 1 mg/kg once daily 15 d, d0): 0
- Number of animals in which tumor is not detectable and not observed [1, 5]: 0
- Number of animals in which tumor is not detectable and not observed [1, 6]: 0
- Number of animals in which tumor is not detectable and not observed [1, 7]: 0
- Number of animals in which tumor is not detectable and not observed [1, 8]: 0
- Number of animals in which tumor is not detectable and not observed [1, 9]: 0
- Number of animals in which tumor is not detectable and not observed ([1]; SD, low-dose 1 mg/kg once daily 15 d, recovery period d7): 0
- Number of animals in which tumor is not detectable and not observed ([1]; SG, high-dose 5 mg/kg once daily 5 d, d0): 0
- Number of animals in which tumor is not detectable and not observed [1, 10]: 0
- Number of animals in which tumor is not detectable and not observed [1, 11]: 0
- Number of animals in which tumor is not detectable and not observed ([1]; SG, high-dose 5 mg/kg once daily 5 d, d9): 0
- Number of animals in which tumor is not detectable and not observed ([1]; SG, high-dose 5 mg/kg once daily 5 d, d12): 0
- Number of animals in which tumor is not detectable and not observed ([1]; SG, high-dose 5 mg/kg once daily 5 d, d15): 0
- Number of animals in which tumor is not detectable and not observed ([1]; SG, high-dose 5 mg/kg once daily 5 d, recovery period d7): 0
- bioluminescence detection data ([1]; positive control high-dose group 5 mg/kg, after the 6th day administration): sharp increase
- number of surviving animals ([2]; SD, low-dose 1 mg/kg once daily 15 d, d0 before administration): (10)
- number of surviving animals [2, 5]: (10)
- number of surviving animals [2, 6]: (10)
- number of surviving animals [2, 7]: (10)
- number of surviving animals [2, 8]: (10)
- number of surviving animals [2, 9]: (9)
- number of surviving animals ([2]; SD, low-dose 1 mg/kg once daily 15 d, d21 (7th day after last administration)): (4)
- number of surviving animals ([2]; SG, high-dose 5 mg/kg once daily 5 d, d0 before administration): (10)
- number of surviving animals [2, 10]: (10)
- number of surviving animals [2, 11]: (10)
- cause of death of the animals ([2]; during the experiment, preliminarily believed): mainly due to drug toxicity

From US10646553B2, “Use of recombinant human calcineurin B subunit” (HAIKOU QILI PHARMACEUTICAL CO., LTD., priority 2015, dated 2020)
